The values that follow come from EP3345917A1, “ANTIPROTOZOAL COMPOUNDS” (Bacoba AG, priority 2017, dated 2018).

In data set [1] the test system is Trypanosoma brucei rhodesiense (STIB 900 strain). Briefly: Alamar Blue assay against Trypanosoma brucei rhodesiense grown in axenic medium. The following applies: In vitro inhibition, read-out: T.b.rhod. It is filed as cell-based. As to the method: (§1) Tests were done in triplicate.
Trypanosoma brucei rhodesiense (STIB 900) were grown in axenic medium as described by Baltz et al. (1985) The samples were tested using the Alamar Blue assay protocol (Baltz T et al. EMBO J 1985; 4:1273-1277) to determine the 50% inhibitory concentration (IC50). […] Melarsoprol (Arsobal®, Sanofi-Aventis, Switzerland) was used as a reference drug (IC50= 0.03 ± 0.01 µM). Its purity was over 95 %, as was certified by the supplier. The IC50 values were calculated by using Softmax Pro software (Molecular Devices Cooperation, Sunnyvale, CA).

For the next data set, the system named is Plasmodium falciparum. Briefly: 3H-hypoxanthine incorporation assay against Plasmodium falciparum. It is filed as cell-based. As to conditions: In vitro inhibition, read-out: P.falc NF5. The protocol:
as §1
IC50 values were calculated by linear interpolation.

The test system of data set [2] is Trypanosoma cruzi trypomastigote forms (Tulahuen strain). In words: Intracellular Trypanosoma cruzi assay in L6-cells, beta-galactosidase/CPRG readout. As to conditions: In vitro inhibition, read-out: T.cruzi. The format is cell-based. The protocol:
as §1
Trypanosoma cruzi trypomastigote forms (Tulahuen strain C2C4 containing β-galactosidase (Lac Z) gene) were cultured as described by Buckner et al. (Buckner FS et al. Antimicrob Agents Ch1996; 40: 2592-2597) in rat myoblast cells (L6-cells). […] After incubation, the substrate chlorophenyl red β-D-galactopyranoside agent CPRG/Nonident was added to all wells and a color change was developed within 2 to 6 h. The plates were read photometrically at 540 nm (Molecular Devices). Data were evaluated and IC50 values calculated using Softmax Pro software (Molecular Devices).

Data set [3] in a line: Cytotoxicity assay on L6-cells (Alamar Blue). The following applies: rat, Cytotox L6, Cytotoxicity against rat myoblast cells (L6). Background: The colour change of resazurin is a common sign of viable cells or microbes.
Data set [4] relates to Axenically grown Leishmania donovani amastigotes (strain MHOM/ET/67/L82). In words: Axenic Leishmania donovani amastigote resazurin assay. The following applies: In vitro inhibition, read-out: L.don. ax. The format is cell-based. As to the method: as §1
Axenically grown Leishmania donovani amastigotes (strain MHOM/ET/67/L82) were grown and tests were done as previously described using the resazurin assay (Räz B et al. Acta Tropica 1997, 68:139-147). The plates were developed for 2-4 hours and read on a Spectramax Gemini XS micro plate fluorometer (Molecular Devices Cooperation) using an excitation wavelength of 536 nm and emission wavelength of 588 nm. Fluorescence development was measured and expressed as percentage of the negative control. […] Data were transferred to the graphic programme Softmax Pro (Molecular Devices), with which IC50 values were calculated.

Non-standard residues stand in square brackets, D forms with d. Residues, ends and D or L forms follow the SMILES beside them. *: point of attachment. Hexenoyl(2E,4S-Me) = CC[C@H](C)/C=C/C(=O)*; Leu(3R-OH) = CC(C)[C@@H](O)[C@H](N)C(=O)O; NH((S)CH(Me)CH2NMe2) = C[C@@H](CN(C)C)N*; Gly(octyl) = CCCCCCCC[C@H](N)C(=O)O; Oxazole4CO(2-Me) = Cc1nc(C(=O)*)co1; Piperazinyl(4-Me) = CN1CCN(*)CC1; Nle = CCCC[C@H](N)C(=O)O; X24 = CN1CC2(C1)CN(*)C2; Hexanoyl = CCCCCC(=O)*; Aib = CC(C)(N)C(=O)O; βAla = NCCC(=O)O A value given as a limit tells only on which side of the number the result lay.

`CCCCCCCC[C@H](NC(=O)[C@@H]1CCCN1C(=O)/C=C/[C@@H](C)CC)C(=O)N[C@@H](CO)C(=O)NC(C)(C)C(=O)N[C@@H](CC(C)C)C(=O)N[C@@H](CC(C)C)C(=O)NC(C)(C)C(=O)NC(C)(C)C(=O)NCCC(=O)N[C@@H](C)CN(C)C` (stereo in doubt) [Compound 5521, (2S)-N-[(1S)-1-[(1-{[(1S)-1-{[(1S)-1-{[1-({1-[(2-{[(2S)-1-(dimethylamino)propan-2-yl]carbamoyl}ethyl)carbamoyl]-1-methylethyl}carbamoyl)-1-methylethyl]carbamoyl}-3-methylbutyl]carbamoyl}-3-methylbutyl]carbamoyl}-1-methylethyl)carbamoyl]-2-hydroxyethyl]-2-{[(2S)-1-[(2E,4S)-4-methylhex-2-enoyl]pyrrolidin-2-yl]formamido}decanamide]: the IC50 in data set [1] was 1.3 nM; with Plasmodium falciparum, 8.5 nM; in data set [2], 807 nM; in data set [4], 3.6 nM. Further, the IC50 at 70 h in data set [3] stood at 1650 nM.
The corresponding values for `CCCCCCCC[C@H](NC(=O)[C@@H]1CCCN1C(=O)/C=C/[C@@H](C)CC)C(=O)N[C@H](C(=O)NCCC(=O)N[C@@H](C)CN(C)C)[C@H](O)C(C)C` [Compound 5523, (2S)-N-[(1S,2R)-1-[(2-{[(2S)-1-(dimethylamino)propan-2-yl]carbamoyl}ethyl)carbamoyl]-2-hydroxy-3-methylbutyl]-2-{[(2S)-1-[(2E,4S)-4-methylhex-2-enoyl]pyrrolidin-2-yl]formamido}decanamide] are 2440 nM, 4750 nM, 5730 nM, 482 nM and 8610 nM.
The corresponding values for `CC[C@H](C)/C=C/C(=O)N1CCC[C@H]1C(=O)N[C@@H](C)C(=O)N[C@H](C(=O)NC(C)(C)C(=O)N[C@@H](CC(C)C)C(=O)N[C@@H](CC(C)C)C(=O)NC(C)(C)C(=O)NC(C)(C)C(=O)NCCC(=O)N[C@@H](C)CN(C)C)[C@H](O)C(C)C` [Compound 5526, (2S,3R)-N-(1-{[(1S)-1-{[(1S)-1-{[1-({1-[(2-{[(2S)-1-(dimethylamino)propan-2-yl]carbamoyl}ethyl)carbamoyl]-1-methylethyl}carbamoyl)-1-methylethyl]carbamoyl}-3-methylbutyl]carbamoyl}-3-methylbutyl]carbamoyl}-1-methylethyl)-3-hydroxy-4-methyl-2-[(2S)-2-{[(2S)-1-[(2E,4S)-4-methylhex-2-enoyl]pyrrolidin-2-yl]formamido}propanamido]pentanamide] ({Hexenoyl(2E,4S-Me)}-PA[Leu(3R-OH)][Aib]LL[Aib][Aib][βAla]-{NH((S)CH(Me)CH2NMe2)}) are 2.35 nM, 83.8 nM, 4500 nM, 286 nM and 3640 nM.
The corresponding values for `CCCCCCCC[C@H](NC(=O)[C@H](C)NC(=O)/C=C/[C@@H](C)CC)C(=O)N[C@H](C(=O)NC(C)(C)C(=O)N[C@@H](CC(C)C)C(=O)N[C@@H](CC(C)C)C(=O)NC(C)(C)C(=O)NC(C)(C)C(=O)NCCC(=O)N[C@@H](C)CN(C)C)[C@H](O)C(C)C` [Compound 5527, (2S)-N-[(1S,2R)-1-[(1-{[(1S)-1-{[(1S)-1-{[1-({1-[(2-{[(2S)-1-(dimethylamino)propan-2-yl]carbamoyl}ethyl)carbamoyl]-1-methylethyl}carbamoyl)-1-methylethyl]carbamoyl}-3-methylbutyl]carbamoyl}-3-methylbutyl]carbamoyl}-1-methylethyl)carbamoyl]-2-hydroxy-3-methylbutyl]-2-[(2S)-2-[(2E,4S)-4-methylhex-2-enamido]propanamido]decanamide] ({Hexenoyl(2E,4S-Me)}-A[Gly(octyl)][Leu(3R-OH)][Aib]LL[Aib][Aib][βAla]-{NH((S)CH(Me)CH2NMe2)}) are 1.8 nM, 8.4 nM, 67.9 nM, 1.1 nM and 274 nM.
As to `CCCC[C@H](NC(=O)[C@@H]1CCCN1C(=O)/C=C/[C@@H](C)CC)C(=O)N[C@H](C(=O)NC(C)(C)C(=O)N[C@@H](CC(C)C)C(=O)N[C@@H](CC(C)C)C(=O)NC(C)(C)C(=O)NC(C)(C)C(=O)NCCC(=O)N[C@@H](C)CN(C)C)[C@H](O)C(C)C` [Compound 5561, (2S)-N-[(1S,2R)-1-[(1-{[(1S)-1-{[(1S)-1-{[1-({1-[(2-{[(2S)-1-(dimethylamino)propan-2-yl]carbamoyl}ethyl)carbamoyl]-1-methylethyl}carbamoyl)-1-methylethyl]carbamoyl}-3-methylbutyl]carbamoyl}-3-methylbutyl]carbamoyl}-1-methylethyl)carbamoyl]-2-hydroxy-3-methylbutyl]-2-{[(2S)-1-[(2E,4S)-4-methylhex-2-enoyl]pyrrolidin-2-yl]formamido}hexanamide] ({Hexenoyl(2E,4S-Me)}-P[Nle][Leu(3R-OH)][Aib]LL[Aib][Aib][βAla]-{NH((S)CH(Me)CH2NMe2)}), the IC50 turned out to be 0.7 nM in data set [1], 4.5 nM in the data set with Plasmodium falciparum, 162 nM in data set [2] and 4.1 nM in data set [4]. Also, the IC50 at 70 h in data set [3] stood at 356 nM.
The corresponding values for `CCCCCCCC[C@H](NC(=O)[C@@H]1CCCN1C(=O)/C=C/[C@@H](C)CC)C(=O)N[C@H](C(=O)NC(C)(C)C(=O)N[C@@H](CC(C)C)C(=O)N[C@@H](CC(C)C)C(=O)NC(C)(C)C(=O)NC(C)(C)C(=O)NCCC(=O)N1CCN(C)CC1)[C@H](O)C(C)C` [Compound 5571, (2S)-N-[(1S,2R)-2-hydroxy-3-methyl-1-[(1-methyl-1-{[(1S)-3-methyl-1-{[(1S)-3-methyl-1-({1-methyl-1-[(1-methyl-1-{[3-(4-methylpiperazin-1-yl)-3-oxopropyl]carbamoyl}ethyl)carbamoyl]ethyl}carbamoyl)butyl]carbamoyl}butyl]carbamoyl}ethyl)carbamoyl]butyl]-2-{[(2S)-1-[(2E,4S)-4-methylhex-2-enoyl]pyrrolidin-2-yl]formamido}decanamide] ({Hexenoyl(2E,4S-Me)}-P[Gly(octyl)][Leu(3R-OH)][Aib]LL[Aib][Aib][βAla]-{Piperazinyl(4-Me)}) are 214 nM, 125 nM, 2930 nM, 398 nM and 2630 nM.
For `CCCCCCCC[C@H](NC(=O)[C@@H]1CCCN1C(=O)CCCCC)C(=O)N[C@H](C(=O)NC(C)(C)C(=O)NC(C)(C)C(=O)NCCC(=O)N[C@@H](C)CN(C)C)[C@@H](C)O` [Compound 5594, (2S)-N-[(1S)-1-[[(1S,2R)-1-[[2-[[2-[[3-[[(1S)-2-(dimethylamino)-1-methyl-ethyl]amino]-3-oxo-propyl]amino]-1,1-dimethyl-2-oxo-ethyl]amino]-1,1-dimethyl-2-oxo-ethyl]carbamoyl]-2-hydroxy-propyl]carbamoyl]nonyl]-1-hexanoyl-pyrrolidine-2-carboxamide] (Hexanoyl-P[Gly(octyl)]T[Aib][Aib][βAla]-{NH((S)CH(Me)CH2NMe2)}), the IC50 was 2240 nM in data set [1], 2320 nM in the data set on Plasmodium falciparum, 8610 nM in data set [2] and 571 nM in data set [4]. The compound further displayed an IC50 at 70 h in data set [3] of 6020 nM.
Consider `CCCCCCCC[C@H](NC(=O)[C@@H]1CCCN1C(=O)c1coc(C)n1)C(=O)N[C@@H](CC(C)C)C(=O)NC(C)(C)C(=O)N[C@@H](CC(C)C)C(=O)N[C@@H](CC(C)C)C(=O)NC(C)(C)C(=O)NC(C)(C)C(=O)NCCC(=O)N1CC2(CN(C)C2)C1` [Compound 6256, (2S)-2-{[(2S)-1-(2-methyl-1,3-oxazole-4-carbonyl)pyrrolidin-2-yl]formamido}-N-[(1S)-3-methyl-1-[(1-methyl-1-[(1S)-3-methyl-1-{[(1S)-3-methyl-1-{{[1-methyl-1-({1-methyl-1-[(3-{6-methyl-2,6-diazaspiro[3.3]heptan-2-yl}-3-oxopropyl)carbamoyl]ethyl}carbamoyl)ethyl]carbamoyl}butyl]carbamoyl}butyl]carbamoyl}ethyl)carbamoyl]butyl]decanamide] ({Oxazole4CO(2-Me)}-P[Gly(octyl)]L[Aib]LL[Aib][Aib][βAla]-X24), for which the values for the IC50 in data set [1], in data set [2] and in data set [4] were 316 nM, 4010 nM and 8670 nM, respectively. The same compound came in with an IC50 at 70 h in data set [3] of over 8060 nM.
